The values that follow come from article PMC9848256 (Journal of Enzyme Inhibition and Medicinal Chemistry, 2023).

The data set can be described thus: in vivo. The following applies: male, SD, rat, iv, 1 mg/kg.

Method: The preliminary pharmacokinetic study was conducted in male SD rats. Two groups with three mice each were set by random. […] The liquid chromatography tandem mass spectrometry (LC-MS/MS) method was pre-built. The system consisted of LC-20AD High Performance Liquid Chromatography (Shimazu, Japan) with Venusil C18 Plus column (2.1*50 mm, 5.0 μm, Agela, USA) and API 4000 mass spectrometry (AB, USA). […] In the LC method, mobile phase A was distilled water and mobile phase B was acetonitrile. The rinse port wash solution was methanol. The flow rate was 0.700 ml/min and the initial back pressure was 8.9 Mpa. […] The subsequent calculation was under a non-compartmental model statistical moment method with WinNonlin 7.0 software (USA).
Two modes of administration were applied. One was the intragastric injection (i.g., or “PO” for “per os”) at a dosage (D) of 3.0 mg/kg, while the other was the intravenous injection (i.v., or “IV”) at a dosage of 1.0 mg/kg.

A word on the AUC(0-inf): it is total exposure, with the tail of the curve extrapolated. Lower therefore signals low exposure. By AUC(0-t) is commonly meant exposure summed from dosing to a finite time, without extrapolation to infinity. Lower therefore signals low exposure. In general, Cmax refers to the peak of the concentration-time curve. Broadly, the Tmax is the time at which the peak concentration occurs. As usually defined, the half-life is the time needed for the level to fall by half in the phase considered. On to `CCCCS(=O)(=O)Oc1ccc(/C=C/C(=O)Nc2cccc(Br)c2)cc1` [Spartinin C10, (E)-4–(3-((3-bromophenyl)amino)-3-oxoprop-1-en-1-yl)phenylbutane-1-sulphonate], for which the AUC(0-inf) is 184 ± 74.4 ng·h/mL, the AUC(0-t) was found to be 159 ± 65 ng·h/mL, the peak level (Cmax) was 284 ± 270 ng/mL and the Tmax stood at 5 min. The half-life is 32.3 ± 13.7 min.
